# Source: US10550142B2, “Quercetin-based compound” (AMOREPACIFIC CORPORATION, priority 2016, dated 2020)
# Biological target: T1, β-amyloid (Aβ1-42) (Homo sapiens, UniProt P05067)
# T1 construct: β-amyloid (Aβ1-42, AnaSpec Inc, USA) was obtained; purchased AnaSpec Inc, USA
# Assay: Beta-amyloid aggregation inhibition, fluorescence analysis (Thioflavin T assay)
# Assay type: biochemical
# Details: compound 10 μM; for Increased RFU (% of Pos.Cont.): aggregated β-amyloid compared to the positive control (no compound) = 100; for decreased aggregation compared with the positive control: positive control taken as 100%
# Procedure: The beta-amyloid aggregation inhibitory effect of quercetin 3-O-[3-O″-(E)-p-coumaroyl][β-D-glucopyranosyl-(1→3)-O-α-L-rhamnopyranosyl-(1→6)-O-β-D-glucopyranoside] and quercetin 3-O-[3-O″-(E)-p-coumaroyl][α-L-rhamnopyranosyl-(1→6)-O-β-D-glucopyranoside] was determined by fluorescence analysis (Thioflavin T assay). Specifically, β-amyloid (Aβ1-42, AnaSpec Inc, USA) was obtained and used at a concentration of 0.1 mg/ml. It was stored at −80° C. prior to use. Each of morin (20 μM), phenol red (20 μM), quercetin 3-O-[3-O″-(E)-p-coumaroyl][β-D-glucopyranosyl-(1→3)-O-α-L-rhamnopyranosyl-(1→6)-O-β-D-glucopyranoside] (1 mg/ml), and quercetin 3-O-[3-O″-(E)-p-coumaroyl][α-L-rhamnopyranosyl-(1→6)-O-β-D-glucopyranoside] (1 mg/ml) was diluted to these concentrations in DMSO. In order to determine the degree of inhibition of Aβ1-42 aggregation, each compound at the above concentration was diluted to 10 μM in 50 μL of 0.01 M sodium phosphate buffer solution. Then, 40 μL of 0.1 mg/ml Aβ1-42 was added thereto, followed by addition of 10 μL of 2 mM Thioflavin T. The fluorescence was then measured with a fluorescence spectrometer (RF-5300PC, SHIMADZU CORPORATION, Japan) at 37° C. and intervals of 5 minutes for 150 minutes. In the table above, “RFU” denotes relative fluorescence unit, and “increased RFU” indicates the amount of aggregated β-amyloid. “Increased RFU (% of Pos.Cont.)” indicates the percentage of aggregated β-amyloid compared to the positive control. “Novel substance 31” indicates quercetin 3-O-[3-O″-(E)-p-coumaroyl][β-D-glucopyranosyl-(1→3)-O-α-L-rhamnopyranosyl-(1→6)-O-β-D-glucopyranoside], and “novel substance 32” indicates quercetin 3-O-[3-O″-(E)-p-coumaroyl][α-L-rhamnopyranosyl-(1→6)-O-β-D-glucopyranoside].
# T1 sequence (P05067 672-713 limits assumed): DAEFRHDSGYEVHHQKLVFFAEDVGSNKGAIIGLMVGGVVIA
structure (smiles),measurement,setting,value
"O=c1c(O)c(-c2ccc(O)cc2O)oc2cc(O)cc(O)c12 [Morin, morin, reference compound]",Increased RFU (amount of aggregated β-amyloid),"Aβ1-42 0.1 mg/ml, 37° C., 150 minutes",11471 RFU
same,Increased RFU (% of Pos.Cont.),,78.6%
same,decreased aggregation compared with the positive control,,21.4%
"O=S1(=O)OC(c2ccc(O)cc2)(c2ccc(O)cc2)c2ccccc21 [Phenol Red, phenol red, reference compound]",Increased RFU (% of Pos.Cont.),,93.6%
same,decreased aggregation compared with the positive control,,6.4%
